Assays:
[1] = tested on: production of IL-1β (THP-1 cells); assay: inhibition of the production of IL-1β in THP-1 cells stimulated with PMA and polyinosic acid (enzyme immunoassay); format: cell-based; details: Homo sapiens, PMA 2 μg/ml and polyinosic acid, 24 hours, read-out: IC50 (concentration to inhibit 50% the IL-1β production)
Experimental: Compounds 1-3, the present diphenyl disulfide compounds obtained in Examples 1 and 2, were evaluated for the activity to inhibit the production of IL-1β, in accordance with the following method.
(§1) The THP-1 cells derived from human peripheral blood (ATCC TIB202) were suspended in RPMI 1640 medium (available from Bio-Whittaker Co., Ltd.) containing 10% (v/v) of fetal bovine serum, 2 mM of glutamine, 50 μM of 2-mercaptoethanol, 60 μg/ml of penicillin and 100 μg/ml of streptomycin.
The suspension of the THP-1 cell was subcultured at 37° C. under the atmosphere of […] and 5% carbon dioxide. A portion of the subcultured suspension was centrifuged at 1200 rpm at room temperature for 3 minutes to recover the subcultured THP-1 cells.
(§2) The resulting THP-1 cells were resuspended in RPMI 1640 medium containing 2% (v/v) of fetal bovine serum, 2 mM of glutamine, 50 μM of 2-mercaptoethanol, 60 μg/ml of penicillin and 100 μg/ml of streptomycin so as to provide a final THP-1 cell concentration of 3×10^6 cells/ml.
The resuspension of the cell was dispensed in 0.5 ml portions to wells of a 24-well plate for cell culture. Then, each solution of the present Compounds 1-3 dissolved in DMSO at the respective specified concentrations was added in 2.5 μl portions to each well. The plate was incubated at 37° C. under the atmosphere of 95% […] and 5% carbon dioxide for one hour. Then, 12-o-tetradecanoylphorbol-13-acetate (PMA) and polyinosic acid were added to each well so as to provide final concentrations of 2 μg/ml and […] respectively. The plate was incubated at 37° C. under the atmosphere of 95% […] and 5% carbon dioxide for 24 hours. After incubation, a supernatant was recovered from each well by means of Pipetteman available from Gilson Co., Ltd. Then, an amount of the IL-1β in the supernatant was assayed by means of the enzyme immunoassay kit available from Cayman Chemical Co., Ltd. […]

[2] = tested on: release of TNFα (THP-1 cells); assay: inhibition of the release of TNFα in THP-1 cells stimulated with PMA and polyinosic acid (ELISA); format: cell-based; details: Homo sapiens, PMA 2 μg/ml and polyinosic acid 200 μg/ml, 24 hours, read-out: IC50 (concentration to inhibit 50% the TNFα release)
Experimental: Compound 1, the present diphenyl disulfide compound obtained in Example 1, was evaluated for the activity to inhibit the release of TNFα, in accordance with the following method.
as §1
The suspension of THP-1 cell was subcultured at 37° C. under the atmosphere of 95% […] and 5% carbon dioxide. A portion of the subcultured suspension was centrifuged at 1200 rpm at room temperature for 3 minutes to recover the subcultured THP-1 cells.
as §2
The resuspension of the cell was dispensed in 0.5 ml portions to wells of a 24-well plate for cell culture, and incubated at 37° C. for one hour. Each solution of the present Compound 1 dissolved in DMSO at the respective specified concentrations was added in 2.5 μl portions to each well. The plate was incubated at 37° C. under the atmosphere of 95% […] and 5% carbon dioxide for one hour. […]

O=[N+]([O-])c1ccc(SSc2ccccc2-c2nc3ccccc3[nH]2)c([N+](=O)[O-])c1 [Compound 3]
IC50 [1]: 34 µM

Nc1ccccc1SSc1ccccc1Nc1ncccn1 [Compound 1]
IC50 [2]: 19 µM
IC50 [1]: 3.8 µM

c1cnc(Nc2ccccc2SSc2ccccc2Nc2ncccn2)nc1 [Compound 2]
IC50 [1]: 34 µM

From US5698564A, “Diphenyl disulfide compounds” (Nisshin Flour Milling Co., Ltd., priority 1994, dated 1997)
